Test results published in patent US8598130B2, “Insecticidal combinations” (priority 2008, dated 2013).

Tested on: mites
Assay: Field trial of mite control on field beans variety Paloma, foliar spray
Format: in vivo
Conditions: for Observed, % control of mites 6DAA3: 6 days after application 3, rate g/ha: abamectin 6.7, cyflumetofen 150, combination 6.7 & 150, percentage compared to non-treated control; for Observed, % control of mites 14DAA3: fourteen days after application 3, rate g/ha: abamectin 6.7, cyflumetofen 150, combination 6.7 & 150, percentage compared to non-treated control; for Observed, % control of mites 6DAA1: six days after application 1, rate g/ha: abamectin 6.7, cyflumetofen 150, combination 6.7 & 150, percentage compared to non-treated control; for Observed, % control of mites 6DAA2: six days after application 2, rate g/ha: abamectin 6.7, cyflumetofen 150, combination 6.7 & 150, percentage compared to non-treated control
Text: The action to be expected E for a given active ingredient combination obeys the so-called COLBY formula and can be calculated as follows (COLBY, S. R. “Calculating synergistic and antagonistic responses of herbicide combination”. Weeds, Vol. 15, pages 20-22; 1967): • ppm=milligrams of active ingredient (=a.i.) per liter of spray mixture • X=% action by active ingredient A) using p ppm of active ingredient • Y=% action by active ingredient B) using q ppm of active ingredient.
According to COLBY, the expected (additive) action of active ingredients A)+B) using p+q ppm of active ingredient is
If the action actually observed (O is greater than the expected action (E), then the action of the combination is super-additive, i.e. there is a synergistic effect.
Trials are conducted on field beans variety Paloma to determine the effects of the present combination.
The trials are carried out on a plot is 1 m^2, with three replicates for each trial and spray volume ranges from 1500-1600 l/ha.
The first application of the pesticide formulation (whether solo or combination) is at pest threshold as foliar spray (at 35 days after planting). Thereafter the second and third foliar applications are at 42 and 49 days after planting.
The assessment of the mite control is carried out on the basis of number of mites on five leaves for each plot at the times indicated in the table (i.e., six days after application 1 (6DAA1), six days after application 2 (6DAA2), 6 days after application 3 (6DAA3), and fourteen days after application 3 (14DAA3)). The values are given as a percentage compared to a non-treated control.
The Table below also provides the expected % control for the combination based on the Colby formula.

Compound	Observed, % control of mites 6DAA3 [%]	Observed, % control of mites 14DAA3 [%]	Observed, % control of mites 6DAA1 [%]	Observed, % control of mites 6DAA2 [%]
COCCOC(=O)C(C#N)(C(=O)c1ccccc1C(F)(F)F)c1ccc(C(C)(C)C)cc1 (centres unmarked) [cyflumetofen]	26	32	79	64
abamectin	59	66	92	32
